Assay results from patent US12319664B2, “Herbicidally active 3-phenylisoxazoline-5-carboxamides of cyclopentenylcarboxylic acid derivatives” (Bayer Aktiengesellschaft, priority 2018, dated 2025).

How the values were obtained:
[1] = system: VERPE; experiment: Post-emergence herbicidal action against VERPE; format: in vivo, Veronica persica; details: application rate 80 g/ha
Outline: (§1)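 Visual rating of activity (0% = as untreated control, 100% = plants dead) about 3 weeks after treatment. Plants were sprayed at the one-leaf stage, 2 to 3 weeks post-sowing in sandy loam, with WP or EC formulations plus 0.5% additive at 600 l/ha water.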

[2] = system: VIOTR; experiment: Post-emergence herbicidal action against VIOTR; format: in vivo, Viola tricolor; details: application rate 80 g/ha, rated visually about 3 weeks after treatment
Experimental: (§2) [table] 2. Post-emergence herbicidal action against harmful plants and crop plant compatibility Seeds of monocotyledonous and dicotyledonous weeds and crop plants are placed in sandy loam in plastic or wood-fibre pots, covered with soil and cultivated in a greenhouse under controlled growth conditions. 2 to 3 weeks after sowing, the test plants are treated at the one-leaf stage. The compounds of the invention, formulated in the form of wettable powders (WP) or as emulsion concentrates (EC), are then sprayed onto the green parts of the plants as aqueous suspension or emulsion with addition of 0.5% additive at a water application rate of 600 l/ha (converted). After the test plants have been kept in the greenhouse under optimum growth conditions for about 3 weeks, the activity of the preparations is rated visually in comparison to untreated controls. For example, 100% activity=the plants have died, 0% activity=like control plants.

[3] = system: POLCO; experiment: Post-emergence herbicidal action against POLCO; format: in vivo, Polygonum convolvulus; details: application rate 80 g/ha, rated visually about 3 weeks after treatment
Outline: as §1

[4] = system: AVEFA; experiment: Post-emergence herbicidal action against AVEFA; format: in vivo, Avena fatua; details: application rate 80 g/ha, rated visually after about 3 weeks
Outline: as §1

[5] = system: ECHCG; experiment: Post-emergence herbicidal action against ECHCG; format: in vivo, Echinochloa crus-galli; details: application rate 80 g/ha, rated visually after about 3 weeks
Outline: as §1

[6] = system: LOLRI; experiment: Post-emergence herbicidal action against LOLRI; format: in vivo, Lolium rigidum; details: application rate 80 g/ha, rated visually after about 3 weeks
Outline: as §1

[7] = system: ALOMY; experiment: Post-emergence herbicidal action against ALOMY; format: in vivo, Alopecurus myosuroides; details: application rate 80 g/ha, rated visually after about 3 weeks
Outline: as §1

[8] = system: SETVI; experiment: Post-emergence herbicidal action against SETVI; format: in vivo, Setaria viridis; details: application rate 80 g/ha, rated visually after about 3 weeks
Outline: as §1

[9] = system: PHBPU; experiment: Post-emergence herbicidal action against PHBPU; format: in vivo, Pharbitis purpurea; details: application rate 80 g/ha, rated visually about 3 weeks after treatment
Outline: as §1

[10] = system: HORMU; experiment: Post-emergence herbicidal action against HORMU; format: in vivo, Hordeum murinum; details: application rate 80 g/ha
Outline: as §1

[11] = system: STEME; experiment: Post-emergence herbicidal action against STEME; format: in vivo, Stellaria media; details: application rate 80 g/ha, rated visually about 3 weeks after treatment
Outline: as §1

[12] = system: ABUTH; experiment: Post-emergence herbicidal action against ABUTH; format: in vivo, Abutilon theophrasti; details: application rate 80 g/ha, rated visually about 3 weeks after treatment
Outline: as §1

[13] = system: AMARE; experiment: Post-emergence herbicidal action against AMARE; format: in vivo, Amaranthus retroflexus; details: application rate 80 g/ha, rated visually about 3 weeks after treatment
Outline: as §1

[14] = system: MATIN; experiment: Post-emergence herbicidal action against MATIN; format: in vivo, Matricaria inodora; details: application rate 80 g/ha, rated visually about 3 weeks after treatment
Experimental: as §2

| SMILES | Herbicidal action against [%] VERPE [1] | Herbicidal action against [%] VIOTR [2] | Herbicidal action against [%] POLCO [3] | Herbicidal action against [%] AVEFA [4] | Herbicidal action against [%] ECHCG [5] | Herbicidal action against [%] LOLRI [6] | Herbicidal action against [%] ALOMY [7] | Herbicidal action against [%] SETVI [8] | Herbicidal action against [%] PHBPU [9] | Herbicidal action against [%] HORMU [10] | Herbicidal action against [%] STEME [11] | Herbicidal action against [%] ABUTH [12] | Herbicidal action against [%] AMARE [13] | Herbicidal action against [%] MATIN [14] |
| --- | --- | --- | --- | --- | --- | --- | --- | --- | --- | --- | --- | --- | --- | --- |
| COC(=O)C1C=CC(NC(=O)C2(C(F)(F)F)CC(c3cccc(C#N)c3)=NO2)C1 (mixture of isomers) [Example I-087] | 90% | 90% | 90% | 100% | 80% | 100% | 100% | 80% | 90% | 100% | 90% | 90% | 90% | – |
| N#Cc1cc(F)cc(C2=NOC(C(=O)NC3C=CC(C(=O)O)C3)(C(F)(F)F)C2)c1 (mixture of isomers) [Example I-090] | 90% | 90% | 90% | 100% | 80% | 100% | 100% | 90% | 90% | 100% | 90% | 90% | 90% | – |
| CC(C)(C#N)NC(=O)C1C=CC(NC(=O)C2(C(F)(F)F)CC(c3cc(F)cc(F)c3)=NO2)C1 (mixture of isomers) [II-34] | 90% | 90% | 90% | 100% | 80% | 90% | 90% | 80% | 90% | 80% | 90% | 80% | 90% | – |
| C=CC1(C(=O)N[C@H]2CC=C(C(=O)OC)C2)CC(c2cc(F)cc(F)c2)=NO1 (stereo partly shown) [III-08] | 90% | 80% | 80% | 100% | 90% | 90% | 90% | 90% | 80% | 100% | 90% | 80% | 80% | – |
| C=CC1(C(=O)N[C@H]2CC=C(C(=O)OCC)C2)CC(c2cc(F)cc(F)c2)=NO1 (stereo partly shown) [III-17] | 90% | 80% | 80% | 90% | 80% | 90% | 100% | 80% | 90% | 90% | 90% | 80% | 90% | – |
| CC1(C(=O)NC2C=CC(C(=O)OCCCl)C2)CC(c2cc(F)cc(C#N)c2)=NO1 (mixture of isomers) [Example I-083] | 90% | 90% | 90% | 100% | 90% | 100% | 100% | 80% | 90% | 100% | 90% | 90% | 90% | – |
| C=CC1(C(=O)N[C@H]2CC=C(C(=O)O)C2)CC(c2cc(F)cc(F)c2)=NO1 (stereo partly shown) [III-09] | 90% | 90% | 90% | 100% | 90% | 100% | 90% | 80% | 90% | 100% | 90% | 80% | 90% | – |
| COCCOC(=O)C1C=CC(NC(=O)C2(C)CC(c3cc(F)cc(C#N)c3)=NO2)C1 (mixture of isomers) [Example I-082] | 90% | 90% | 90% | 100% | 90% | 100% | 100% | 90% | 90% | 100% | 90% | 90% | 90% | – |
| CCOC(=O)C1C=CC(NC(=O)C2(C#N)CC(c3cc(F)cc(F)c3)=NO2)C1 (stereo not shown) [Example I-104] | 80% | – | 90% | 80% | 80% | 90% | 90% | – | – | 90% | 80% | – | 80% | 80% |
| COCCOC(=O)C1C=CC(NC(=O)C2(C(F)(F)F)CC(c3cc(F)cc(C#N)c3)=NO2)C1 (stereo not shown) [Example I-100] | 90% | 80% | 90% | 100% | 90% | 90% | 100% | 80% | 80% | 90% | 90% | 80% | 80% | – |
| N#Cc1cc(F)cc(C2=NOC(C(=O)N[C@H]3C=C[C@@H](C(=O)OCC(F)(F)F)C3)(C(F)(F)F)C2)c1 (stereo partly shown) [Example I-096] | 90% | 90% | 90% | 100% | 80% | 100% | 100% | 80% | 90% | 100% | 90% | 90% | 90% | – |
| COC(=O)C1C=CC(NC(=O)C2(C)CC(c3cc(F)cc(C#N)c3)=NO2)C1 (mixture of isomers) [Example I-084] | 90% | 90% | 90% | 100% | 90% | 100% | 100% | 90% | 90% | 100% | 100% | 90% | 90% | – |
| N#Cc1cccc(C2=NOC(C(=O)NC3C=CC(C(=O)O)C3)(C(F)(F)F)C2)c1 (mixture of isomers) [Example I-085] | 90% | 80% | 80% | 100% | 90% | 100% | 90% | 80% | 90% | 100% | 80% | 90% | 90% | – |
